Patent US10385065B2, “Antibacterial compounds” (priority 2014, dated 2019)
In brackets after ≈: the same amount, converted by molar mass. Like-named read-outs stand apart in the source and are kept apart here.

How the values were obtained:
Format in all cases: cell-based
[1] = test system: S. aureus (MRSA) ATCC 43300; assay: MIC, S. aureus ATCC 43300; conditions: Staphylococcus aureus; Table 2; read-out: MIC S. aureus (MRSA) ATCC 43300 Heterogeneous MRSA strain
[2] = test system: S. aureus NRS127 MRSA LZD resistant; assay: MIC, S. aureus NRS127; conditions: Staphylococcus aureus; Table 2
S. aureus NRS100 MRSA = assay: MIC, S. aureus NRS100; conditions: Staphylococcus aureus; Table 2
[3] = test system: Escherichia coli ATCC 25922; assay: MIC, broth microdilution, E. coli ATCC 25922; conditions: ATCC25922, Table 1, wild type strain
[4] = test system: S. aureus NRS107 MUP resistant; assay: MIC, S. aureus NRS107; conditions: Staphylococcus aureus, Table 2
[5] = test system: Neisseria gonorrhoeae ATCC 49226; assay: MIC, N. gonorrhoeae ATCC 49226; conditions: ATCC49226, Table 4, 24 h incubation
[6] = test system: Neisseria meningitidis ATCC 13090; assay: MIC, N. meningitidis ATCC 13090; conditions: ATCC13090, Table 4, 24 h incubation
[7] = test system: human hepatic cell line (HepG2 ATCC HB-8065); assay: Human cell viability assay (CellTiter-Glo), HepG2; conditions: HepG2, 24 h incubation, tested over 1-128 μg/mL, read-out: IC50 values against HepG2
How it was run: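 HepG2 seeded at 20,000 cells/well, then after 24 h given two-fold serial dilutions (1-128 μg/mL, 1% DMSO) in DMEM with 0.001% FBS and 0.3% albumin. After 24 h at 37 °C, ATP luminescence (CellTiter-Glo) read; IC50 is the concentration halving viability.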

[8] = test system: S. aureus NRS482 MRSA FQ resistant; assay: MIC, S. aureus NRS482; conditions: Staphylococcus aureus; Table 2
[9] = test system: Enterococcus faecium ATCC 19434; assay: MIC, E. faecium ATCC 19434; conditions: ATCC19434, Table 2
S. aureus NRS1 MRSA = assay: MIC, S. aureus NRS1; conditions: Staphylococcus aureus; Table 2; read-out: MIC S. aureus NRS1 MRSA AMG & TET resistant
[10] = test system: S. aureus SACPX1-SP25 MSSA - FQ resistant; assay: microbe, parasite or virus in culture; conditions: Staphylococcus aureus, ATCC 29213 / MSSA, read-out: MIC S. aureus SACPX1-SP25 MSSA - FQ resistant (isogenic mutant of ATCC 29213)
S. aureus NRS70 MRSA = assay: MIC, S. aureus NRS70; conditions: Staphylococcus aureus; Table 2
[11] = test system: S. aureus VRS1 MRSA VAN resistant; assay: MIC, S. aureus VRS1; conditions: Staphylococcus aureus, Table 2
[12] = test system: Streptococcus pneumoniae ATCC BAA-255; assay: MIC, S. pneumoniae ATCC BAA-255; conditions: ATCCBAA255, Table 2
[13] = test system: Haemophilus influenzae ATCC 49247; assay: MIC, H. influenzae ATCC 49247; conditions: ATCC49247, Table 4
[14] = test system: Moraxella catarrhalis ATCC 25240; assay: MIC, M. catarrhalis ATCC 25240; conditions: ATCC25240, Table 4
[15] = test system: Staphylococcus aureus ATCC 29213; assay: MIC, broth microdilution, S. aureus ATCC 29213
[16] = test system: S. epidermidis NRS101 MRSE; assay: MIC, S. epidermidis NRS101; conditions: Staphylococcus epidermidis; Table 2; read-out: MIC S. epidermidis NRS101 MRSE AMG, ERY resistant
[17] = test system: Legionella pneumophila ATCC 33152; assay: microbe, parasite or virus in culture; conditions: ATCC33152, 48 h, read-out: MIC Legionella pneumophila ATCC 33152
[18] = test system: Mycobacterium smegmatis ATCC 19420; assay: MIC, M. smegmatis ATCC 19420; conditions: Mycolicibacterium smegmatis, ATCC19420; Table 4, 72 h incubation
[19] = ATCC29213, Table 1, wild type strain, read-out: MIC S. aureus ATCC 29213
[20] = ATCC 29213 / MSSA, Table 2, read-out: MIC S. aureus (MSSA) ATCC 29213 CLSI control strain

SMILES	MIC [1] [µg/mL]	MIC [2] [µg/mL]	MIC (S. aureus NRS100 MRSA) [µg/mL]	MIC [3] [µg/mL]	MIC [4] [µg/mL]	MIC [5] [µg/mL]	MIC [6] [µg/mL]	IC50 [7] [µg/mL]	MIC [8] [µg/mL]	MIC [9] [µg/mL]	MIC (S. aureus NRS1 MRSA) [µg/mL]	MIC [10] [µg/mL]	MIC (S. aureus NRS70 MRSA) [µg/mL]	MIC [11] [µg/mL]	MIC [12] [µg/mL]	MIC [13] [µg/mL]	MIC [14] [µg/mL]	MIC [15, 19] [µg/mL]	MIC [15, 20] [µg/mL]	MIC [16] [µg/mL]	other results
Cc1nc2c(=O)n(C3CC3)c3c(C)c(-c4ccc(CN)c(F)c4)ccc3c2o1 [Compound 36, 7-[4-(aminomethyl)-3-fluoro-phenyl]-5-cyclopropyl-2,6-dimethyl-oxazolo[4,5-c]quinolin-4-one]	< 1	1 to 10 (≈ 2.65 to 26.5 µM)	1 to 10 (≈ 2.65 to 26.5 µM)	1 to 10 (≈ 2.65 to 26.5 µM)	1 to 10 (≈ 2.65 to 26.5 µM)	10 to 100 (≈ 26.5 to 265 µM)	< 1	> 100	1 to 10 (≈ 2.65 to 26.5 µM)	10 to 100 (≈ 26.5 to 265 µM)	> 100	1 to 10 (≈ 2.65 to 26.5 µM)	< 1	10 to 100 (≈ 26.5 to 265 µM)	1 to 10 (≈ 2.65 to 26.5 µM)	1 to 10 (≈ 2.65 to 26.5 µM)	1 to 10 (≈ 2.65 to 26.5 µM)	< 1	< 1	10 to 100 (≈ 26.5 to 265 µM)	MIC [17]: < 1 µg/mL
Cc1c(-c2ccc3[nH]ncc3c2)ccc2c3ocnc3c(=O)n(C3CC3)c12 [Compound 39, 5-cyclopropyl-7-(1H-indazol-5-yl)-6-methyl-oxazolo[4,5-c]quinolin-4-one]	< 1	< 1	< 1	1 to 10 (≈ 2.81 to 28.1 µM)	< 1	< 1	< 1	10 to 100 (≈ 28.1 to 281 µM)	< 1	10 to 100 (≈ 28.1 to 281 µM)	< 1	< 1	< 1	< 1	< 1	< 1		< 1	< 1	< 1	MIC [18]: 1 to 10 µg/mL (≈ 2.81 to 28.1 µM)
C[C@H]1COc2c(N3CCN(C)CC3)c(F)cc3c(=O)c(C(=O)O)cn1c23 [Levofloxacin, reference compound]	< 1	> 100	< 1		< 1	< 1	< 1	> 100	1 to 10 (≈ 2.77 to 27.7 µM)	1 to 10 (≈ 2.77 to 27.7 µM)	10 to 100 (≈ 27.7 to 277 µM)	1 to 10 (≈ 2.77 to 27.7 µM)	< 1	10 to 100 (≈ 27.7 to 277 µM)	< 1	< 1	< 1		< 1	< 1	MIC [17]: < 1 µg/mL
